One series has as its target T1, human IRAK-4 (Homo sapiens, UniProt Q9NWZ3).
T1 construct: purchased Carna Biosciences 09 145
T1 sequence (Q9NWZ3 1-460): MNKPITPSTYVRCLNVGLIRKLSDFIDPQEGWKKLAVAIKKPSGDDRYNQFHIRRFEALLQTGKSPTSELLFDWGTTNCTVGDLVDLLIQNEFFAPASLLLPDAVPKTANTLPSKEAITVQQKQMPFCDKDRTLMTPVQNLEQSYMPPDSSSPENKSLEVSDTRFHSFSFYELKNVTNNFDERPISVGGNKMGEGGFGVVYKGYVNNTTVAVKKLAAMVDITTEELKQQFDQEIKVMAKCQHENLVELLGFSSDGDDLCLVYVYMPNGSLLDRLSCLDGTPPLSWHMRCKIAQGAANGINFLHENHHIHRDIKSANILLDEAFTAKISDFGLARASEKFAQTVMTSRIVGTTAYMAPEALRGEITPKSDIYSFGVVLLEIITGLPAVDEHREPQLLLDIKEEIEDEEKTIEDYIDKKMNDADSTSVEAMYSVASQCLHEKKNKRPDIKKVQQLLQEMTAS
The series can be described thus: Phosphorylation IC50 determination for human IRAK-4 (ADP-Glo kinase assay). As to conditions: human IRAK-4, RIP140 substrate, Km ATP; read-out: IRAK4 ADPglo biochemical assay IC50. The protocol:
3.1. Phosphorylation IC50 Determination for Human IRAK-4
The phosphorylation of the substrate RIP140 (SEQ ID1) by IRAK4 at Km ATP was detected with the ADP-Glo Kinase Assay (Promega, Cat #V9103), a luminescent kinase assay which measures the ADP formed from a kinase reaction. (Zegzouti et al. 2009) In a second step the kinase reaction was terminated and all the remaining ATP was depleted. In a final step the ADP was converted into ATP and this newly synthesized ATP was measured by using a luciferase/luciferin reaction with a luminescent reader. The luminescent signal positively correlated with kinase activity, in particular kinase inhibition giving a decrease of the luminescent signal.
For the semi-automated assay, the positive control (100% inhibition) was prepared by diluting 10 mM staurosporine stock mixture (20 μL) in water (3.8 mL) and DMSO (180 μL), thus resulting in a […] staurosporine solution at 1% DMSO (final concentration after further dilution in the kinase reaction).
For the automated assay, no pre-dilution of the 10 mM staurosporine stock was made. 10 mM staurosporine was spotted directly in the assay plate using acoustic dispensing and complemented with DMSO to result in a similar final concentration as mentioned above.
For the semi-automated assay, the negative control (0% inhibition) was prepared by mixing water (3.8 mL) and DMSO (200 μL) resulting in a final concentration of 1% DMSO after further dilution in the kinase reaction. For the automated assay no pre-dilution of DMSO was done. 100% DMSO was spotted directly on the assay plate.
The assay buffer solution was prepared at a concentration corresponding to 5 fold the final (most diluted) assay concentration by mixing a solution of 125 mM TRIS pH 7.5+0.05% Triton X-100+2.5 mM EGTA (5.27 mL) with 1M mgCl2 (72 μL), 1M DTT (57.6 μL), and 200 mM MnCl2 (360 μL).
For example, for the semi-automated method, the enzyme-substrate mixture was prepared by mixing water (3999 μL), assay buffer solution (1380 μL), 1 mM RIP140 (138 μL—SEQ ID1), and 200 ng/mL IRAK 4 (3.45 μL Carna Biosciences, 09 145).
For semi-automated method, the ATP mixture was prepared at a concentration corresponding to 2.5 fold the final (most diluted) assay concentration of the semi-automated method and 1.5 fold the final (most diluted) assay concentration of the automated method. For example, for the semi-automated method, the ATP mixture was prepared by mixing water (4126 μL), assay buffer solution (1380 μL), and 10 mM ATP (13.80 μL).
The assay was performed either in a semi-automated or fully automated manner. The assay volume and the incubation time of the ADP detection were different accordingly the method used.
3.1.3.1. Semi-Automated Assay
The compounds were prepared as a serial dilution of 10 point dose responses with 1/5 dilution steps in 100% DMSO starting from 2 mM highest concentration, diluted 1/20 in water. 1 μL was transferred dry to the assay plates.
On each assay plate 32 wells of each control (positive & negative) were added, followed by 2 μL enzyme-substrate mixture.
The reaction was started by adding 2 μL diluted ATP (final concentration Km ATP) on the assay plates. Plates were centrifuged for a few seconds at 1000 rpm followed by an incubation at r.t. for 120 min.
The reactions were stopped and the unconsumed ATP was depleted by adding 5 μL ADP-glo Reagent (Promega, Cat #V9103) to the reaction. The plates were quickly centrifuged at 1000 rpm and incubated at r.t. for 40 min corresponding to full ATP depletion.
The ADP was converted back to ATP and luciferase and luciferin were introduced to detect ATP by adding 10 μL kinase detection reagent (Promega, Cat #V9103) to the reaction. The plates were centrifuged for a few seconds at 1000 rpm and incubated at r.t. for a further 30 min.
Luminescent read out was performed on an Envision luminescent reader (Perkin Elmer). […]
(In ADP-Glo the light output rises with the ADP produced.)

The test system of series [1] is pooled cryopreserved hepatocytes. The series can be described thus: Metabolic stability in hepatocytes (mouse). As to conditions: 1 μM test compound. The format is in vitro ADME. The protocol: (§1) 4.6. Metabolic Stability in Hepatocytes
(§2) The aim of this assay is to determine the metabolic stability of the compound in hepatocytes (cryopreserved) of different species. Low hepatocyte stability may result in the formation of unwanted metabolites, high clearance, and therefore is not desirable.
(§3) The decrease in parent was assessed by measuring the percentage remaining by LC-MS/MS analysis.
(§4) A 10 mM stock solution of test compound in DMSO was first diluted in DMSO to 3 mM, and then in modified Krebs-Henseleit buffer (Sigma, K3753) to 5 μM. This compound dilution was added to a suspension of pooled cryopreserved hepatocytes (BioreclamationIVT) at 37° C. under gentle shaking.
(§5) Final reaction conditions were: 1 μM of test compound, 0.03% DMSO, 0.5 million viable hepatocytes/mL, and 75 μL incubation volume.
(§6) Testosterone (1 μM) and 7-hydroxycoumarin (1 μM) were used, respectively as phase I and phase II metabolic reaction controls.
(§7) After 0, 10, 20, 45, 90, 120 and 180 min of incubation, the reaction was terminated with 225 μL of MeCN:MeOH (2:1) containing 100 ng/mL of diclofenac as analytical internal standard. Samples were mixed, centrifuged and the supernatant analyzed by LC-MS/MS.
(§8) The instrument responses (ratios of test compound and internal standard peak areas) were referenced to the zero time point samples (considered as 100%) in order to determine the percentage of compound remaining.
(§9) Plots of percentage compound remaining are used to determine the intrinsic clearance in the hepatocyte incubations using the following equations:
(§10) Scaled Clint[L/h/kg]=Clint[μL/min/10^6 cells]*#(10^6) cells/g liver*60*(1/10^6) Scaled Clint unbound [L/h/kg]=Clint [L/h/kg]/Fu,inc where: fu,inc equals hepatocyte binding, derived from microsomal binding (fu,mic) by following equation: […]

The test system is the same in series [2]. The series can be described thus: Metabolic stability in hepatocytes (human). In kind it is in vitro ADME. As to conditions: 1 μM test compound. The protocol:
as §1, §2, §3, §4, §5, §6, §7, §8, §9, §10

Bounds are passed on as bounds.

16 compounds from patent publication US20220194938A1, “NOVEL COMPOUNDS AND PHARMACEUTICAL COMPOSITIONS THEREOF FOR THE TREATMENT OF INFLAMMATORY DISORDERS” (GALAPAGOS NV, priority 2019, published 2022) can be followed below.

The term IC50 denotes the concentration that gives 50% inhibition. For `COc1cc2nc(CCC(C)(C)O)cn2cc1NC(=O)c1cccnc1O` [Compound 9, 2-hydroxy-N-[2-(3-hydroxy-3-methyl-butyl)-7-methoxy-imidazo[1,2-a]pyridin-6-yl]pyridine-3-carboxamide], the IC50 on human IRAK-4 is 5 to 10 nM. Regarding `COc1cc2nc(CCC(C)(C)O)cn2cc1NC(=O)c1nc(C)ccc1Cl` [Compound 11, 3-chloro-N-[2-(3-hydroxy-3-methyl-butyl)-7-methoxy-imidazo[1,2-a]pyridin-6-yl]-6-methyl-pyridine-2-carboxamide], the IC50 at human IRAK-4 was more than 50 nM. Take `COc1cc2nc(CCC(C)(C)O)cn2cc1NC(=O)c1cccc(CC#N)n1` [Compound 14, 6-(cyanomethyl)-N-[2-(3-hydroxy-3-methyl-butyl)-7-methoxy-imidazo[1,2-a]pyridin-6-yl]pyridine-2-carboxamide]: in series [1], the “Mouse (Perc. remaining at 90 min)” value is 23.5%. Further, the “Human (Perc. remaining at 90 min)” value in series [2] came to 89.95%. Moreover, the IC50 on human IRAK-4 fell in the range of 5 to 10 nM. For the compound `COc1cc2nc(CCC(C)(C)O)cn2cc1NC(=O)c1ccc(F)c(C)n1` [Compound 15, 5-fluoro-N-[2-(3-hydroxy-3-methyl-butyl)-7-methoxy-imidazo[1,2-a]pyridin-6-yl]-6-methyl-pyridine-2-carboxamide], the “Mouse (Perc. remaining at 90 min)” value in series [1] is on record as 60.05%. In addition, the “Human (Perc. remaining at 90 min)” value in series [2] is on record as 48.5%. Besides, at human IRAK-4, the IC50 was 0.1 to 5 nM.

Turning to `COc1cc2nc(CCC(C)(C)O)cn2cc1NC(=O)c1cncc(C)n1` [Compound 16, N-[2-(3-hydroxy-3-methyl-butyl)-7-methoxy-imidazo[1,2-a]pyridin-6-yl]-6-methyl-pyrazine-2-carboxamide], the “Mouse (Perc. remaining at 90 min)” value in series [1] is 74.55%. The “Human (Perc. remaining at 90 min)” value in series [2] was determined as 29.2%. Moreover, at human IRAK-4, the half-maximal inhibitory concentration (IC50) lay within 10 to 50 nM. On to `COc1cc2nc(CCC(C)(C)O)cn2cc1NC(=O)c1cncc(C(F)(F)F)n1` [Compound 17, N-[2-(3-hydroxy-3-methyl-butyl)-7-methoxy-imidazo[1,2-a]pyridin-6-yl]-6-(trifluoromethyl)pyrazine-2-carboxamide], for which the IC50 at human IRAK-4 lay in the range of 10 to 50 nM. With `COc1cc2nc(CCC(C)(C)O)cn2cc1NC(=O)c1cccc(CO)n1` [Compound 21, 6-(hydroxymethyl)-N-[2-(3-hydroxy-3-methyl-butyl)-7-methoxy-imidazo[1,2-a]pyridin-6-yl]pyridine-2-carboxamide], in series [1], the “Mouse (Perc. remaining at 90 min)” value is given as 34.9%. The “Human (Perc. remaining at 90 min)” value in series [2] was 71.95%. The concentration for half-maximal inhibition (IC50) on human IRAK-4 lay in the range of 0.1 to 5 nM. Consider `COc1cc2nc(CCS(C)(=O)=O)cn2cc1NC(=O)c1cccn(C(F)F)c1=O` [Compound 26, 1-(difluoromethyl)-N-[7-methoxy-2-(2-methylsulfonylethyl)imidazo[1,2-a]pyridin-6-yl]-2-oxo-pyridine-3-carboxamide], for which, in series [2], the “Human (Perc. remaining at 90 min)” value is 106%. In addition, the IC50 on human IRAK-4 is 5 to 10 nM. On to `CNC(=O)c1cc2nc(CCS(C)(=O)=O)cn2cc1NC(=O)c1cccc(C(F)(F)F)n1` [Compound 30, N-methyl-2-(2-methylsulfonylethyl)-6-[[6-(trifluoromethyl)pyridine-2-carbonyl]amino]imidazo[1,2-a]pyridine-7-carboxamide], for which the IC50 at human IRAK-4 fell in the range of 10 to 50 nM.

Regarding `COc1cc2nc(CCC(C)(C)O)cn2cc1NC(=O)c1ccc(F)c(Cl)n1` [Compound 32, 6-chloro-5-fluoro-N-[2-(3-hydroxy-3-methylbutyl)-7-methoxyimidazo[1,2-a]pyridin-6-yl]pyridine-2-carboxamide], the IC50 on human IRAK-4 lay within 10 to 50 nM. Regarding `CC(C)(O)CCc1cn2cc(NC(=O)c3cccc(C(F)(F)F)n3)c(Br)cc2n1` [Compound 36, N-[7-bromo-2-(3-hydroxy-3-methyl-butyl)imidazo[1,2-a]pyridin-6-yl]-6-(trifluoromethyl)pyridine-2-carboxamide], on human IRAK-4, the IC50 fell in the range of 0.1 to 5 nM. Consider `CN1CC(NC(=O)c2cc3nc(CCC(C)(C)O)cn3cc2NC(=O)c2cccc(C(F)(F)F)n2)C1` [Compound 43, 2-(3-hydroxy-3-methylbutyl)-N-(1-methylazetidin-3-yl)-6-(6-(trifluoromethyl)picolinamido)imidazo[1,2-a]pyridine-7-carboxamide], for which the IC50 on human IRAK-4 lay in the range of 5 to 10 nM. Same read-out and setting: with `CC(C)(O)CCc1cn2cc(NC(=O)c3cccc(C(F)(F)F)n3)c(C(=O)NC3COC3)cc2n1` [Compound 44, 2-(3-hydroxy-3-methylbutyl)-N-(oxetan-3-yl)-6-(6-(trifluoromethyl)picolinamido)imidazo[1,2-a]pyridine-7-carboxamide] the figure was 5 to 10 nM; with `CC(C)(O)CCc1cn2cc(NC(=O)c3cccc(C(F)(F)F)n3)c(C(=O)NCC3CC3)cc2n1` [Compound 45, N-(cyclopropylmethyl)-2-(3-hydroxy-3-methylbutyl)-6-(6-(trifluoromethyl)picolinamido)imidazo[1,2-a]pyridine-7-carboxamide], 5 to 10 nM; with `CC(C)(O)CCc1cn2cc(NC(=O)c3cccc(C(F)(F)F)n3)c(C(=O)NC3(C)CC3)cc2n1` [Compound 46, 2-(3-hydroxy-3-methylbutyl)-N-(1-methylcyclopropyl)-6-(6-(trifluoromethyl)picolinamido)imidazo[1,2-a]pyridine-7-carboxamide], 5 to 10 nM. On the same count and under the same terms, with `CC(C)(O)CCc1cn2cc(NC(=O)c3cccc(C(F)(F)F)n3)c(C(=O)NC3CCOC3)cc2n1` (stereo not shown) [Compound 47, 2-(3-hydroxy-3-methylbutyl)-N-(tetrahydrofuran-3-yl)-6-(6-(trifluoromethyl)picolinamido)imidazo[1,2-a]pyridine-7-carboxamide] the figure was 5 to 10 nM.
